Measured values as given in PubChem BioAssay (NCI).
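Cultured in 96-well plates, cells were exposed to test compound for 48 hours across five concentrations. GI50 marks 50% less growth. TGI marks complete inhibition of growth.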

Assays:
Assay in all cases: NCI tumour cell line growth inhibition, 48 h
KM12 colon = system: KM12 colon
NCI-H522 lung = system: NCI-H522 lung
DLD-1 colon = system: DLD-1 colon
KM20L2 colon = system: KM20L2 colon
DMS 273 small cell lung = system: DMS 273 small cell lung
NCI-H460 lung = system: NCI-H460 lung
OVCAR-3 ovarian = system: OVCAR-3 ovarian
SNB-78 CNS = system: SNB-78 CNS
SN12C renal = system: SN12C renal
MDA-MB-231 breast = system: MDA-MB-231 breast
BT-549 breast = system: BT-549 breast
RPMI-8226 leukemia = system: RPMI-8226 leukemia
XF 498 CNS = system: XF 498 CNS

| Structure (SMILES) | TGI (KM12 colon) | TGI (NCI-H522 lung) | TGI (DLD-1 colon) | TGI (KM20L2 colon) | TGI (DMS 273 small cell lung) | TGI (NCI-H460 lung) | TGI (OVCAR-3 ovarian) | TGI (SNB-78 CNS) | TGI (SN12C renal) | TGI (MDA-MB-231 breast) | TGI (BT-549 breast) | TGI (RPMI-8226 leukemia) | GI50 (KM12 colon) | GI50 (RPMI-8226 leukemia) | GI50 (NCI-H460 lung) | GI50 (OVCAR-3 ovarian) | TGI (XF 498 CNS) | GI50 (NCI-H522 lung) | GI50 (BT-549 breast) | GI50 (MDA-MB-231 breast) |
| --- | --- | --- | --- | --- | --- | --- | --- | --- | --- | --- | --- | --- | --- | --- | --- | --- | --- | --- | --- | --- |
| CCC(C)C(N)C(=O)NC(CC(N)=O)C(=O)NC(CC(C)C)C(=O)NC(CCCCN)C(=O)NC(C)C(=O)NC(CC(C)C)C(=O)NC(C)C(=O)NC(C)C(=O)NC(CC(C)C)C(=O)NC(C)C(=O)NC(CCCCN)C(=O)NC(CCCCN)C(=O)NC(C(=O)NC(CC(C)C)C(N)=O)C(C)CC (stereo unspecified) | 29.5 µM | 33.3 µM | 25 µM | > 58.6 µM | 17 µM | 28.9 µM | 22.6 µM | 29.2 µM | 26.4 µM |  |  |  |  |  |  |  |  |  |  |  |
| O=c1c2ccccc2[nH]n1Cc1ccccc1 | > 100 µM | > 100 µM |  |  |  | > 100 µM | > 100 µM |  | > 100 µM | > 100 µM | > 100 µM | > 100 µM |  |  |  |  |  |  |  |  |
| COc1cc(OC)cc(-c2ccc(-c3ccc(C(=N)N)cn3)o2)c1 | 3.34 µM |  |  |  |  | 3.16 µM | 3.46 µM |  |  |  |  | 4.33 µM | 1.78 µM | 1.92 µM | 1.63 µM | 1.89 µM |  |  |  |  |
| Cc1[nH]c(=O)[nH]c(=O)c1/C=C/C(=O)O (tested in a mixture with another compound) | > 625 µM | > 625 µM | > 625 µM | > 625 µM | > 625 µM | > 625 µM | > 625 µM | > 625 µM | > 625 µM |  |  | > 625 µM |  |  |  |  | > 625 µM |  |  |  |
| OC1c2ccccc2CCC1CN1CCN(CCOC(c2ccc(F)cc2)c2ccc(F)cc2)CC1 (stereo unspecified) | > 100 µM | 33.6 µM |  |  |  | 48 µM | 42.6 µM |  | 27.3 µM | 31.6 µM | 25.1 µM | 64.4 µM |  |  |  |  |  |  |  |  |
| CSCC[C@@H]1C(=O)N(C)[C@H](C(C)(C)C)N1C(=O)c1ccccc1 | > 100 µM | > 100 µM | > 100 µM | > 100 µM | > 100 µM | > 100 µM | > 100 µM | > 100 µM | > 100 µM |  |  | > 100 µM |  |  |  |  | > 100 µM |  |  |  |
| CSc1nc(C)cc(Nc2ccc(O)c(CN3CCOCC3)c2)n1 | > 100 µM | > 100 µM |  |  |  | > 100 µM | > 100 µM |  | > 100 µM | > 100 µM | > 100 µM | > 100 µM |  |  |  |  |  |  |  |  |
| N#CC(N=Nc1ccccc1C(=O)O)C(N)=O (stereo unspecified) | > 100 µM | > 100 µM |  |  |  | > 100 µM | > 100 µM |  | > 100 µM | > 100 µM | > 100 µM | > 100 µM |  |  |  |  |  |  |  |  |
| COc1cc2c3cc1Oc1c(O)c(OC)cc4c1C(Cc1ccc(O)c(c1)Oc1ccc(cc1)CC3N(C)CC2)N(C)CC4 (stereo unspecified) | 23.6 µM | 29.7 µM |  | 17.4 µM | 30.6 µM | 28.4 µM | 30.5 µM | 50.7 µM | 28.6 µM |  |  | 84.4 µM |  |  |  |  | 33.5 µM |  |  |  |
| CC(CC(N)C(=O)O)C(=O)O (stereo unspecified) | > 100 µM | > 100 µM |  |  |  | > 100 µM | > 100 µM |  | > 100 µM | > 100 µM | > 100 µM |  |  |  |  |  |  |  |  |  |
| COc1cccc(/C=N/NC(=O)CSCC(=O)N/N=C/c2cccc(OC)c2OC)c1OC | > 100 µM | > 100 µM |  |  |  | > 100 µM | > 100 µM |  | > 100 µM | > 100 µM |  | > 100 µM |  |  |  |  |  |  |  |  |
| CN(C)c1ccc(/C=C/c2ccc(S(N)(=O)=O)cc2)cc1 | > 100 µM | 25.6 µM |  |  |  | > 100 µM | 49.8 µM |  | 51.1 µM | 34.3 µM | 8.62 µM | > 100 µM | 8.28 µM | 11.6 µM |  |  |  | 6.88 µM | 2.14 µM |  |
| CC1(C)[C@@H]2CC[C@]1(C)[C@H](OC(=O)/C=C/c1ccccc1)C2 | 42.6 µM | 28.6 µM |  |  |  | > 100 µM | 19.6 µM |  | 34.3 µM | 35 µM | 48 µM |  |  |  |  |  |  |  |  |  |
| COc1nc2cccc(C(O)c3ccccc3)c2nc1-c1ccccc1 (stereo unspecified) | > 100 µM | 27.2 µM |  |  |  | 24.8 µM | 20.4 µM |  | 25.6 µM | 31.9 µM | 46.3 µM | 10.8 µM |  |  |  |  |  |  |  |  |
| O=C1C=CC2OC(c3ccccc3)C(O)C2O1 (stereo unspecified) | 17.3 µM | 4 µM | 13.9 µM | 23.8 µM | 18.2 µM | 16.2 µM | 10.7 µM | 46.3 µM | 22.9 µM |  |  | 7.65 µM |  |  |  |  | 10.1 µM |  |  |  |
| COc1cc(C(=O)O[C@H](C(=O)NCCCNC(=O)[C@@H](OC(=O)c2cc(OC)cc3c(C)cccc23)[C@]2(C)CO2)[C@]2(C)CO2)c2cccc(C)c2c1 | 0.607 µM | < 0.01 µM |  |  |  | 0.902 µM |  |  | 0.486 µM | 0.579 µM | 2.29 µM | 2.26 µM | 0.101 µM | 0.322 µM | < 0.019 µM |  |  | < 0.01 µM | 0.197 µM | 0.153 µM |
| CC(=O)c1[nH]c(NC(C)C)c(C(=S)Nc2ccccc2)c1N | > 100 µM | 31.7 µM |  |  |  | > 100 µM | > 100 µM |  | 75.1 µM | 66.3 µM | 86.4 µM | 27.9 µM |  |  |  |  |  |  |  |  |
| Cc1c[n+]2c3ccccc3c3ccccc3c2s1 | 9.4 µM | 15.7 µM | > 44.5 µM |  | 20.1 µM | 25.5 µM | 12.9 µM | > 29.5 µM | 15.5 µM |  |  | 57.8 µM |  |  |  |  | 18 µM |  |  |  |
| C=CCN1/C(=C(\C#N)c2nc3ccccc3[nH]2)Sc2c1nc[nH]c2=O | > 100 µM | > 100 µM | > 100 µM | > 100 µM | > 100 µM | > 100 µM | > 100 µM | > 100 µM | > 100 µM |  |  | > 100 µM |  |  |  |  | > 100 µM |  |  |  |
| OCC1COc2cc(Cl)c(Cl)cc2O1 (stereo unspecified) | > 10 µM | > 10 µM |  |  |  | > 10 µM | > 10 µM |  | > 10 µM | > 10 µM |  | > 10 µM |  |  |  |  |  |  |  |  |
| COc1cc(C2c3cc4c(cc3[C@@H](Nc3cccc(CO)c3)C3COC(=O)[C@H]23)OCO4)cc(OC)c1O (stereo partly specified) | 6.67 µM | 3.52 µM | 4.56 µM |  | 1.76 µM | 1.75 µM | 13.4 µM |  | 6.11 µM |  |  | 2.12 µM |  |  |  |  | 5.63 µM |  |  |  |
